According to publication PMC6979384, “Characterization of the plant homeodomain (PHD) reader family for their histone tail interactions” (Epigenetics & Chromatin, 2020):

Assays:
Assay in all cases: Histone peptide microarray
Assay type in all cases: binding, human
Conditions in all cases: total n = 4
ING1 = tested on: ING1
Summary of the method: (§1)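 Histone peptide library (293 synthetic peptides, single/combinatorial PTMs) arrayed and probed with 0.5 μM purified GST-PHD domain; optimized protocol; quadruplicate mean and SD reported.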

ING5 = tested on: ING5
Summary of the method: as §1

TAF3 = tested on: TAF3
Summary of the method: as §1

KDM5B (3) = tested on: KDM5B (3)
Summary of the method: as §1

PHF13 = tested on: PHF13
Summary of the method: as §1

TRIM66 (PB) = tested on: TRIM66 (PB)
Summary of the method: as §1

DIDO1 = tested on: DIDO1
Summary of the method: as §1

KDM5A (3) = tested on: KDM5A (3)
Summary of the method: as §1

KDM5B (1) = tested on: KDM5B (1)
Summary of the method: as §1

PHF2 = tested on: PHF2
Summary of the method: as §1

SP140L = tested on: SP140L
Summary of the method: as §1

BPTF (PB) = tested on: BPTF (PB)
Summary of the method: as §1

KDM5A (1) = tested on: KDM5A (1)
Summary of the method: as §1

PHF8 = tested on: PHF8
Summary of the method: as §1

DPF2 (PPC2W2) = tested on: DPF2 (PPC2W2)
Summary of the method: as §1

MLL5 = tested on: MLL5
Summary of the method: as §1

CHD5 (PCC) = tested on: CHD5 (PCC)
Summary of the method: as §1

ING4 = tested on: ING4
Summary of the method: as §1

KDM4C (TTP) = tested on: KDM4C (TTP)
Summary of the method: as §1

PHF21A = tested on: PHF21A
Summary of the method: as §1

KDM7A = tested on: KDM7A
Summary of the method: as §1

RAG2 = tested on: RAG2
Summary of the method: as §1

PHRF1 (RP) = tested on: PHRF1 (RP)
Summary of the method: as §1

ING2 = tested on: ING2
Summary of the method: as §1

CHD4 (PPCC) = tested on: CHD4 (PPCC)
Summary of the method: as §1

CHD5 (PPCC) = tested on: CHD5 (PPCC)
Summary of the method: as §1

ING3 = tested on: ING3
Summary of the method: as §1

PHF23 = tested on: PHF23
Summary of the method: as §1

AIRE (PP) = tested on: AIRE (PP)
Summary of the method: as §1

MORC3 (CW) = tested on: MORC3 (CW)
Summary of the method: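 Readout is array binding signal, reported as the mean and standard deviation over four replicates. Each purified GST-fused PHD domain was incubated at 0.5 μM with a library of 293 modified histone peptides.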

BAZ2B = tested on: BAZ2B
Summary of the method: as §1

[1] = sheet "Array Heatmap", GST-tagged reader, histone peptide array

Which “Array Heatmap signal, ING1” value (ING1; [1]) does the source give for H3K4me3 + K9ac + S10p: H3 1-20 here?
Its value is 0.6226.

What about the “Array Heatmap signal, ING5” value (ING5; [1]) of the same substance?
Its value is 0.3414.

What about the “Array Heatmap signal, TAF3” value (TAF3; [1]) of the same substance?
The value was 0.3627.

What about the “Array Heatmap signal, KDM5B (3)” value (KDM5B (3); [1]) of the same substance?
The value was 0.4789.

What about the “Array Heatmap signal, PHF13” value (PHF13; [1]) of the same substance?
The value was 0.601.

And the “Array Heatmap signal, TRIM66 (PB)” value (TRIM66 (PB); [1])?
The value was 0.5913.

What about the “Array Heatmap signal, DIDO1” value (DIDO1; [1]) of the same substance?
The value was 0.8464.

What about the “Array Heatmap signal, KDM5A (3)” value (KDM5A (3); [1]) of the same substance?
The value was 0.592.

And the “Array Heatmap signal, KDM5B (1)” value (KDM5B (1); [1])?
The value was 0.5673.

What about the “Array Heatmap signal, PHF2” value (PHF2; [1]) of the same substance?
The value was 0.6992.

What about the “Array Heatmap signal, SP140L” value (SP140L; [1]) of the same substance?
The value was 0.3742.

What about the “Array Heatmap signal, BPTF (PB)” value (BPTF (PB); [1]) of the same substance?
The value was 0.3713.

And the “Array Heatmap signal, KDM5A (1)” value (KDM5A (1); [1])?
Its value is 0.422.

And the “Array Heatmap signal, PHF8” value (PHF8; [1])?
Its value is 0.4377.

What about the “Array Heatmap signal, DPF2 (PPC2W2)” value (DPF2 (PPC2W2); [1]) of the same substance?
Its value is 0.6858.

What about the “Array Heatmap signal, MLL5” value (MLL5; [1]) of the same substance?
The value was 0.6372.

And the “Array Heatmap signal, CHD5 (PCC)” value (CHD5 (PCC); [1])?
Its value is 0.7803.

And the “Array Heatmap signal, ING4” value (ING4; [1])?
Its value is 0.4594.

And the “Array Heatmap signal, KDM4C (TTP)” value (KDM4C (TTP); [1])?
The value was 0.4439.

And the “Array Heatmap signal, PHF21A” value (PHF21A; [1])?
Its value is 0.4669.

What about the “Array Heatmap signal, KDM7A” value (KDM7A; [1]) of the same substance?
Its value is 0.3478.

And the “Array Heatmap signal, RAG2” value (RAG2; [1])?
The value was 0.3673.

And the “Array Heatmap signal, PHRF1 (RP)” value (PHRF1 (RP); [1])?
Its value is 0.5333.

And the “Array Heatmap signal, ING2” value (ING2; [1])?
The value was 0.7056.

And the “Array Heatmap signal, CHD4 (PPCC)” value (CHD4 (PPCC); [1])?
Its value is 0.6064.

And the “Array Heatmap signal, CHD5 (PPCC)” value (CHD5 (PPCC); [1])?
Its value is 0.5185.

And the “Array Heatmap signal, ING3” value (ING3; [1])?
Its value is 0.5024.

And the “Array Heatmap signal, PHF23” value (PHF23; [1])?
The value was 0.5778.

And the “Array Heatmap signal, AIRE (PP)” value (AIRE (PP); [1])?
Its value is 0.4053.

What about the “Array Heatmap signal, MORC3 (CW)” value (MORC3 (CW); [1]) of the same substance?
Its value is 0.5046.

What about the “Array Heatmap signal, BAZ2B” value (BAZ2B; [1]) of the same substance?
The value was 0.4222.

How did the “Array Heatmap signal (histone peptide microarray)” value (ING1; GST-tagged ING1, sheet Array Heatmap, each array performed twice) turn out when H3K4me3 + K9ac: H3 1-20 was run?
The value was 0.8182.

What about the “Array Heatmap signal (histone peptide microarray)” value (ING5; GST-tagged ING5, sheet Array Heatmap, each array performed twice) of the same substance?
The value was 0.4241.

What about the “Array Heatmap signal (histone peptide microarray)” value (TAF3; GST-tagged TAF3, sheet Array Heatmap, each array performed twice) of the same substance?
Its value is 0.7366.

And the “Array Heatmap signal (histone peptide microarray)” value (KDM5B (3); GST-tagged KDM5B (3), sheet Array Heatmap, each array performed twice)?
The value was 0.7448.

And the “Array Heatmap signal (histone peptide microarray)” value (PHF13; GST-tagged PHF13, sheet Array Heatmap, each array performed twice)?
The value was 0.7477.

And the “Array Heatmap signal (histone peptide microarray)” value (TRIM66 (PB); GST-tagged TRIM66 (PB = PHD + Bromodomain), sheet Array Heatmap, each array performed twice)?
The value was 0.6603.

What about the “Array Heatmap signal (histone peptide microarray)” value (DIDO1; GST-tagged DIDO1, sheet Array Heatmap, each array performed twice) of the same substance?
The value was 0.9386.

And the “Array Heatmap signal (histone peptide microarray)” value (KDM5A (3); GST-tagged KDM5A (3), sheet Array Heatmap, each array performed twice)?
Its value is 0.93.

And the “Array Heatmap signal (histone peptide microarray)” value (KDM5B (1); GST-tagged KDM5B (1), sheet Array Heatmap, each array performed twice)?
Its value is 0.7027.

What about the “Array Heatmap signal (histone peptide microarray)” value (PHF2; GST-tagged PHF2, sheet Array Heatmap, each array performed twice) of the same substance?
Its value is 0.9106.

What about the “Array Heatmap signal (histone peptide microarray)” value (SP140L; GST-tagged SP140L, sheet Array Heatmap, each array performed twice) of the same substance?
Its value is 0.3446.

What about the “Array Heatmap signal (histone peptide microarray)” value (BPTF (PB); GST-tagged BPTF (PB = PHD + Bromodomain), sheet Array Heatmap, each array performed twice) of the same substance?
Its value is 0.6012.

And the “Array Heatmap signal (histone peptide microarray)” value (KDM5A (1); GST-tagged KDM5A (1), sheet Array Heatmap, each array performed twice)?
The value was 0.468.

What about the “Array Heatmap signal (histone peptide microarray)” value (PHF8; GST-tagged PHF8, sheet Array Heatmap, each array performed twice) of the same substance?
Its value is 0.6077.

And the “Array Heatmap signal (histone peptide microarray)” value (DPF2 (PPC2W2); GST-tagged DPF2 (PPC2W2 = Dual PHD + C2W2-type Zn-finger), sheet Array Heatmap, each array performed twice)?
Its value is 0.7108.

What about the “Array Heatmap signal (histone peptide microarray)” value (MLL5; GST-tagged MLL5, sheet Array Heatmap, each array performed twice) of the same substance?
The value was 0.8313.

What about the “Array Heatmap signal (histone peptide microarray)” value (CHD5 (PCC); GST-tagged CHD5 (PCC = PHD + Dual Chromodomain), sheet Array Heatmap, each array performed twice) of the same substance?
The value was 0.7875.

And the “Array Heatmap signal (histone peptide microarray)” value (ING4; GST-tagged ING4, sheet Array Heatmap, each array performed twice)?
Its value is 0.6305.

What about the “Array Heatmap signal (histone peptide microarray)” value (KDM4C (TTP); GST-tagged KDM4C (TTP = Tandem Tudor domain + PHD), sheet Array Heatmap, each array performed twice) of the same substance?
The value was 0.5829.

What about the “Array Heatmap signal (histone peptide microarray)” value (PHF21A; GST-tagged PHF21A, sheet Array Heatmap, each array performed twice) of the same substance?
The value was 0.4382.

What about the “Array Heatmap signal (histone peptide microarray)” value (KDM7A; GST-tagged KDM7A, sheet Array Heatmap, each array performed twice) of the same substance?
The value was 0.4556.

And the “Array Heatmap signal (histone peptide microarray)” value (RAG2; GST-tagged RAG2, sheet Array Heatmap, each array performed twice)?
The value was 0.8735.

What about the “Array Heatmap signal (histone peptide microarray)” value (PHRF1 (RP); GST-tagged PHRF1 (RP), sheet Array Heatmap, each array performed twice) of the same substance?
Its value is 0.6133.

What about the “Array Heatmap signal (histone peptide microarray)” value (ING2; GST-tagged ING2, sheet Array Heatmap, each array performed twice) of the same substance?
Its value is 0.8738.

And the “Array Heatmap signal (histone peptide microarray)” value (CHD4 (PPCC); GST-tagged CHD4 (PPCC = Dual PHD + Dual Chromodomain), sheet Array Heatmap, each array performed twice)?
The value was 0.6185.

What about the “Array Heatmap signal (histone peptide microarray)” value (CHD5 (PPCC); GST-tagged CHD5 (PPCC = Dual PHD + Dual Chromodomain), sheet Array Heatmap, each array performed twice) of the same substance?
Its value is 0.5612.

What about the “Array Heatmap signal (histone peptide microarray)” value (ING3; GST-tagged ING3, sheet Array Heatmap, each array performed twice) of the same substance?
Its value is 0.8165.

And the “Array Heatmap signal (histone peptide microarray)” value (PHF23; GST-tagged PHF23, sheet Array Heatmap, each array performed twice)?
Its value is 0.8466.

What about the “Array Heatmap signal (histone peptide microarray)” value (AIRE (PP); GST-tagged AIRE (PP), sheet Array Heatmap, each array performed twice) of the same substance?
The value was 0.4068.

And the “Array Heatmap signal (histone peptide microarray)” value (MORC3 (CW); GST-tagged MORC3 (CW = CW-type Zn-finger), sheet Array Heatmap, each array performed twice)?
Its value is 0.7776.

And the “Array Heatmap signal (histone peptide microarray)” value (BAZ2B; GST-tagged BAZ2B, sheet Array Heatmap, each array performed twice)?
The value was 0.4768.
